Patent publication US5686607A, “Pyridyl ethylation of lactam derivatives” (Merck & Co., Inc., priority 1996, dated 1997)

Tested on: ADP-stimulated platelets
Assay: ADP-stimulated platelet aggregation assay (gel-filtered human platelets)
Type: cell-based
Conditions: ADP-stimulated gel-filtered human platelets (2×10^8 per ml), fibrinogen 100 ug/ml, Ca^2+ 1 mM, 10 mM ADP, 37° C., read-out: IC50 (inhibition of aggregation by 50% relative to a control)
Source text: The activity of these fibrinogen receptor antagonists is illustrated below. One test used to evaluate fibrinogen receptor antagonist activity is based on evaluation of inhibition of ADP-stimulated platelets. Aggregation requires that fibrinogen bind to and occupy the platelet fibrinogen receptor site. Inhibitors of fibrinogen binding inhibit aggregation. In the ADP-stimulated platelet aggregation assay used to determine inhibition associated with these fibrinogen receptor antagonists, human platelets are isolated from fresh blood, collected into acid citrate/dextrose by differential centrifugation followed by gel filtration on Sepharose 2B in divalent ion-free Tyrode's buffer (pH 7.4) containing 2% bovine serum albumin.
Platelet aggregation is measured at 37° C. in a Chronolog aggregometer. The reaction mixture contains gel-filtered human platelets (2×10^8 per ml), fibrinogen (100 micrograms per ml (ug/ml)), Ca^2+ (1 mM), and the fibrinogen receptor antagonists tested. The aggregation is initiated by adding 10 mM ADP 1 minute after the other components are added. The reaction is then allowed to proceed for at least 2 minutes. The extent of inhibition of aggregation is expressed as the percentage of the rate of aggregation observed in the absence of inhibitor. The IC50 is the dose of a particular compound inhibiting aggregation by 50% relative to a control lacking the compound. […]

IC50: 100 µM
Compound: C[C@H](CC(=O)O)NC(=O)CN1CCCC(CCC2CCNCC2)C1=O (stereo partly shown)
